In patent US8278345B2, “Inhibitors of glutaminyl cyclase” (Probiodrug AG, priority 2006, dated 2012) one finds IC50 data, which are given here for 25 compounds.

Like-named read-outs stand apart in the source and are kept apart here.

The target of the experiment is hQC (Homo sapiens, UniProt Q16769). In words: Inhibitor assay for glutaminyl cyclase activity (fluorometric, H-Gln-βNA / H-Gln-AMC). It is filed as biochemical. The method in brief: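 Ki values came from fitting progress curves to a competitive inhibition model; rapid screens used 4 mM inhibitor with substrate at KM. QC activity was read at 30 °C via auxiliary pyroglutamyl aminopeptidase releasing βNA (0.2 mM H-Gln-βNA, 0.2 M Tris pH 8.0, 20 mM EDTA) or AMC (0.05 M Tris pH 8.0, 5 mM EDTA).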
Chain of hQC (Q16769 29-361): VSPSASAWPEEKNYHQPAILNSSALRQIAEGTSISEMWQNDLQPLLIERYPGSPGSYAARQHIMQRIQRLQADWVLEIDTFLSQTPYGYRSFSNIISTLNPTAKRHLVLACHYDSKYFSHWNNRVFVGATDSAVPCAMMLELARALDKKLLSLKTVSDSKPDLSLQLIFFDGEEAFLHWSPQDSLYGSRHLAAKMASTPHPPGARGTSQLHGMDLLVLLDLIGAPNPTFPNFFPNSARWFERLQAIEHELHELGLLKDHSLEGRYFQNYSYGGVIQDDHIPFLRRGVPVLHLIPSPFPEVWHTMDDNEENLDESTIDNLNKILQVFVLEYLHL

Where [1] appears, read: compound from preparative synthesis, purified, read-out: IC50 hQC.

Broadly, the IC50 is the midpoint of a concentration-inhibition curve. As for `O=C1C(O)=C(c2c[nH]c3ccccc23)C(c2ccc(CO)o2)N1CCCn1ccnc1` (stereo not drawn) [Compound 126, 3-Hydroxy-5-(5-hydroxymethyl-furan-2-yl)-1-(3-imidazol-1-yl-propyl)-4-(1H-indol-3-yl)-1,5-dihydro-pyrrol-2-one], where the note is “read-out: IC50”, the IC50 turned out to be 400 nM. As for `O=C1C(O)=C(c2c[nH]c3ccccc23)C(c2ccccc2)N1CCCn1ccnc1` (stereo not drawn) [Compound 127, 3-Hydroxy-1-(3-imidazol-1-yl-propyl)-4-(1H-indol-3-yl)-5-phenyl-1,5-dihydro-pyrrol-2-one], the IC50 under setting [1] came to 434 nM and the IC50 (read-out: IC50) was found to be 40 nM.

As for `O=C1C(O)=C(c2c[nH]c3ccccc23)C(C2CCC=CO2)N1CCCn1ccnc1` (stereo not drawn) [Compound 128, 5-(3,4-Dihydro-2H-pyran-2-yl)-3-hydroxy-1-(3-imidazol-1-yl-propyl)-4-(1H-indol-3-yl)-1,5-dihydro-pyrrol-2-one], the IC50 reads like this: under setting [1], 804 nM; (read-out: IC50) 40 nM. In the case of `O=C1C(O)=C(c2c[nH]c3ccccc23)C(C2=CCCCC2)N1CCCn1ccnc1` (stereo not drawn) [Compound 129, 5-Cyclohex-1-enyl-3-hydroxy-1-(3-imidazol-1-yl-propyl)-4-(1H-indol-3-yl)-1,5-dihydro-pyrrol-2-one], where the note is “read-out: IC50”, the IC50 is 400 nM. As for `Cc1ccc2c(C3C(c4c[nH]c5ccccc45)=C(O)C(=O)N3CCCn3ccnc3)c[nH]c2c1` (stereo not drawn) [Compound 130, 3-Hydroxy-1-(3-imidazol-1-yl-propyl)-4-(1H-indol-3-yl)-5-(6-methyl-1H-indol-3-yl)-1,5-dihydro-pyrrol-2-one], the IC50 (read-out: IC50) was found to be 1300 nM. As for `O=C1C(O)=C(c2c[nH]c3ccccc23)C(C(F)(F)F)N1CCCn1ccnc1` (stereo not drawn) [Compound 131, 3-Hydroxy-1-(3-imidazol-1-yl-propyl)-4-(1H-indol-3-yl)-5-trifluoromethyl-1,5-dihydro-pyrrol-2-one], the IC50 (read-out: IC50) stood at 1300 nM.

As for `O=C1C(O)=C(c2c[nH]c3ccccc23)C(c2c[nH]c3ccccc23)N1CCCn1ccnc1` (stereo not drawn) [Compound 132, 3-Hydroxy-1-(3-imidazol-1-yl-propyl)-4,5-bis-(1H-indol-3-yl)-1,5-dihydro-pyrrol-2-one], the 50% inhibitory concentration (IC50) (read-out: IC50) amounted to 400 nM. In the case of `O=C1C(O)=C(c2c[nH]c3ccccc23)C(c2ncc[nH]2)N1CCCn1ccnc1` (stereo not drawn) [Compound 133, 3-Hydroxy-5-(1H-imidazol-2-yl)-1-(3-imidazol-1-yl-propyl)-4-(1H-indol-3-yl)-1,5-dihydro-pyrrol-2-one], where the note is “read-out: IC50”, the IC50 turned out to be 1300 nM. As to `O=C1C(O)=C(c2c[nH]c3ccccc23)C(Cc2ccccc2)N1CCCn1ccnc1` (stereo not drawn) [Compound 134, 5-Benzyl-3-hydroxy-1-(3-imidazol-1-yl-propyl)-4-(1H-indol-3-yl)-l 5-dihydro-pyrrol-2-one], the IC50 (read-out: IC50) is 400 nM. Turning to `O=C1C(O)=C(c2c[nH]c3ccccc23)C(c2ccccn2)N1CCCn1ccnc1` (stereo not drawn) [Compound 135, 3-Hydroxy-1-(3-imidazol-1-yl-propyl)-4-(1H-indol-3-yl)-5-pyridin-2-yl-1,5-dihydro-pyrrol-2-one], the IC50 (read-out: IC50) amounted to 40 nM. On the same count and under the same terms, in the case of `O=C1C(O)=C(c2c[nH]c3ccccc23)C(c2ccncc2)N1CCCn1ccnc1` (stereo not drawn) [Compound 136, 3-Hydroxy-1-(3-imidazol-1-yl-propyl)-4-(1H-indol-3-yl)-5-pyridin-4-yl-1,5-dihydro-pyrrol-2-one] it was 40 nM; in that of `O=C1C(O)=C(c2c[nH]c3ccccc23)C(c2cccs2)N1CCCn1ccnc1` (stereo not drawn) [Compound 137, 3-Hydroxy-1-(3-imidazol-1-yl-propyl)-4-(1H-indol-3-yl)-5-thiophen-2-yl-1,5-dihydro-pyrrol-2-one], 400 nM; in that of `O=C1C(O)=C(c2c[nH]c3ccccc23)C(CO)N1CCCn1ccnc1` (stereo not drawn) [Compound 138, 3-Hydroxy-5-hydroxymethyl-1-(3-imidazol-1-yl-propyl)-4-(1H-indol-3-yl)-1,5-dihydro-pyrrol-2-one], 40 nM. For the compound `O=C1C(O)=C(c2c[nH]c3ccccc23)C(C2CC2)N1CCCn1ccnc1` (stereo not drawn) [Compound 139, 5-Cyclopropyl-3-hydroxy-1-(3-imidazol-1-yl-propyl)-4-(1H-indol-3-yl)-1,5-dihydro-pyrrol-2-one], the 50% inhibitory concentration (IC50) (read-out: IC50) was 400 nM.

For `O=C1C(O)=C(c2c[nH]c3ccccc23)C(c2ccco2)N1CCCn1ccnc1` (stereo not drawn) [Compound 140, 5-Furan-2-yl-3-hydroxy-1-(3-imidazol-1-yl-propyl)-4-(1H-indol-3-yl)-1,5-dihydro-pyrrol-2-one], the IC50 (read-out: IC50) turned out to be 400 nM.

Regarding `CCCCC1C(c2c[nH]c3ccccc23)=C(O)C(=O)N1CCCn1ccnc1` (stereo not drawn) [Compound 141, 5-Butyl-3-hydroxy-1-(3-imidazol-1-yl-propyl)-4-(1H-indol-3-yl)-1,5-dihydro-pyrrol-2-one], the IC50 (read-out: IC50) turned out to be 400 nM.

For the compound `CCC1C(c2c[nH]c3ccccc23)=C(O)C(=O)N1CCCn1ccnc1` (stereo not drawn) [Compound 142, 5-Ethyl-3-hydroxy-1-(3-imidazol-1-yl-propyl)-4-(1H-indol-3-yl)-1,5-dihydro-pyrrol-2-one], where the note is “read-out: IC50”, the concentration for half-maximal inhibition (IC50) came to 400 nM. In the case of `O=C1C(O)=C(c2c[nH]c3ccccc23)C(c2cccc(Cl)c2)N1CCCn1ccnc1` (stereo not drawn) [Compound 143, 5-(3-Chloro-phenyl)-3-hydroxy-1-(3-imidazol-1-yl-propyl)-4-(1H-indol-3-yl)-1,5-dihydro-pyrrol-2-one], the IC50 reads like this: under setting [1], 134 nM; (read-out: IC50) 40 nM.

Take `O=C1C(O)=C(c2c[nH]c3ccccc23)C(c2ccccc2F)N1CCCn1ccnc1` (stereo not drawn) [Compound 144, 5-(2-Fluoro-phenyl)-3-hydroxy-1-(3-imidazol-1-yl-propyl)-4-(1H-indol-3-yl)-1,5-dihydro-pyrrol-2-one]: the IC50 was 1040 nM under setting [1] and 40 nM (read-out: IC50). Regarding `O=C1C(O)=C(c2c[nH]c3ccccc23)C(c2ccc(O)cc2)N1CCCn1ccnc1` (stereo not drawn) [Compound 145, 3-Hydroxy-5-(4-hydroxy-phenyl)-1-(3-imidazol-1-yl-propyl)-4-(1H-indol-3-yl)-1,5-dihydro-pyrrol-2-one], the IC50 (read-out: IC50) worked out at 400 nM. Take `O=C1C(O)=C(c2c[nH]c3ccccc23)C(c2cccc(O)c2)N1CCCn1ccnc1` (stereo not drawn) [Compound 146, 3-Hydroxy-5-(3-hydroxy-phenyl)-1-(3-imidazol-1-yl-propyl)-4-(1H-indol-3-yl)-1,5-dihydro-pyrrol-2-one]: the IC50 (read-out: IC50) worked out at 400 nM. On to `O=C1C(O)=C(c2ccc(O)cc2)C(c2cc(Cl)cc(Cl)c2O)N1CCCn1ccnc1` (stereo not drawn) [Compound 147, 5-(3,5-Dichloro-2-hydroxy-phenyl)-3-hydroxy-4-(4-hydroxy-phenyl)-1-(3-imidazol-1-yl-propyl)-1,5-dihydro-pyrrol-2-one], for which the IC50 (read-out: IC50) was determined as 40 nM. In the case of `Cc1ccc(C2C(c3ccc(O)cc3)=C(O)C(=O)N2CCCn2ccnc2)cc1` (stereo not drawn) [Compound 148, 3-Hydroxy-4-(4-hydroxy-phenyl)-1-(3-imidazol-1-yl-propyl)-5-p-tolyl-1,5-dihydro-pyrrol-2-one], the half-maximal inhibitory concentration (IC50) reads like this: under setting [1], 152 nM; (read-out: IC50) 40 nM. Regarding `CCC/C=C/C1C(c2ccc(O)cc2)=C(O)C(=O)N1CCCn1ccnc1` (stereo not drawn) [Compound 149, 3-Hydroxy-4-(4-hydroxy-phenyl)-1-(3-imidazol-1-yl-propyl)-5-(pent-1-enyl)-1,5-dihydro-pyrrol-2-one], the IC50 (read-out: IC50) was 1300 nM. Still for that read-out and setting: for `CCCC1C(c2ccc(O)cc2)=C(O)C(=O)N1CCCn1ccnc1` (stereo not drawn) [Compound 150, 3-Hydroxy-4-(4-hydroxy-phenyl)-1-(3-imidazol-1-yl-propyl)-5-propyl-1,5-dihydro-pyrrol-2-one] the value was 40 nM.
